Data as given in article PMC7504360 (International Journal of Molecular Sciences, 2020).
Square brackets hold non-standard residues; d marks the D form. Peptide text beside a SMILES is read from it.

How the values were obtained:
Calcein leakage assay = conditions: 4 µM peptide, 3 min after peptide exposure, EYPE/EYPG (7:3, w/w) LUVs, pH 7.4, fluorescence ex 490/em 520 nm; triplicate
Method: We investigated the modes of action of the peptides by measuring their abilities to permeate model phospholipid membranes and Escherichia coli. The membrane-permeabilizing ability of the peptides was measured by monitoring the release of fluorescent calcein from liposomes of various compositions. We employed negatively-charged large unilamellar vesicles (LUVs) composed of 7:3 (w/w) egg yolk L-α-phosphatidylethanolamine (EYPE)/egg yolk L-α-phosphatidylglycerol (EYPG) to mimic gram-negative bacterial cells. The percentage of calcein leakage 3 min after peptide exposure was used to assess its ability to permeate the membrane. […] All Pro-peptides induced significant dye release against the negatively charged EYPE/EYPG LUVs, implying that they potently permeate bacterial cell component membranes. […]
Calcein-entrapped LUVs composed of egg yolk phosphatidylethanolamine (EYPE)/egg yolk phosphatidylglycerol EYPG (7:3, w/w) were prepared by vortexing the dried lipid in dye buffer solution (70 mM calcein, 10 mM Tris, 150 mM NaCl, and 0.1 mM Ethylenediaminetetraacetic acid (EDTA), pH 7.4) as described previously. The leakage of calcein from the LUVs was monitored by measuring fluorescence intensity at an excitation wavelength of 490 nm and an emission wavelength of 520 nm on a model RF-5301PC spectrophotometer (Shimadzu, Kyoto, Japan). […]

chymotrypsin = test: Protease stability assay (antimicrobial activity after protease digestion); type: in vitro ADME; conditions: peptide–enzyme 10,000:1, PBS, 6 h at 37 °C preincubation, then E. coli and A. baumannii, 16 h at 37 °C, 600 nm, repeated three times
Method: (§1) For stability analysis, all Pro-peptides at their MICs were incubated with trypsin and chymotrypsin at the ratio of 10,000:1 (peptide–enzyme) in PBS for 6 h at 37 °C. After incubation, 100 μL of peptide-protease mixture was added to the 100 μL bacterial suspension (E. coli and A. baumannii, 2 × 10^5 CFU/mL) and further incubated for 16 h at 37 °C. Melittin was used as standard peptide, and bacterial suspension without peptide and protease served as control. The experiment was repeated three times, and the extent of bacterial growth was measured at 600 nm using a microplate reader.

trypsin = test: as above; type: in vitro ADME; conditions: peptide–enzyme 10,000:1, PBS, 6 h at 37 °C preincubation, then E. coli and A. baumannii, 16 h at 37 °C, 600 nm, repeated three times
Method: as §1

[1] = system: LPS-stimulated RAW264.7 cells; test: TNF-α release, ELISA; type: cell-based, mouse; conditions: 25 μM, 1 h pretreatment, LPS 20 ng/mL for 16 h
Method: (§2) The presence of nitrite in culture media strongly validates the indication of NO production which was assessed by Griess assay. Briefly, RAW264.7 cell (1 × 10^5) were seeded in s 96-well plate in triplicate. Peptides (1, 5, 25, and 50 μM) were pretreated 1 h and then stimulated with 20 ng/mL of LPS purified from E. coli O111:B4 (Sigma-Aldrich, St. Louis, MO, USA) for 16 h. After incubation, equal volumes of culture media and Griess reagent were added and color change was read at 540 nm. The concentration of nitrite content was assessed using a standard curve of sodium nitrite. In addition, release of inflammatory cytokines including TNF-α and IL-6 in the culture media was quantified using an enzyme-linked immunosorbent assays kit (ELISA; R&D Systems, Minneapolis, MN, USA) and the assay was performed according to the kit protocol. The assay was conducted in triplicate, and the concentrations of TNF-α and IL-6 were evaluated by measuring the absorbance at 450 nm using a microplate reader.

[2] = system: LPS-stimulated RAW264.7 cells; test: IL-6 release, ELISA; type: cell-based, mouse; conditions: 25 μM, 1 h pretreatment, LPS 20 ng/mL for 16 h
Method: as §2

TLR4 = test: Immunoblot of TLR4 expression; type: cell-based, mouse; conditions: 20 μM peptide, LPS 50 ng/mL, RAW264.7 cells
Method: The protein content of all experimental groups of RAW264.7 cells in triplicate were extracted using radio immunoprecipitation buffer (RIPA) containing protease phosphatase inhibitor. The supernatant was collected by centrifugation (12,000× g) at 4 °C for 20 min and stored at −80 °C until further use. Similarly, cytoplasmic and nuclear fractionation was extracted using an NE-PER Nuclear and Cytoplasmic Extraction Reagents kit (ThermoFisher Scientific, MA, USA), according to the manufacturer’s protocol. Protein contents were quantified using a bicinchoninic acid (BCA) protein assay kit (Thermo Fisher Scientific Inc., MA, USA) and 30 μg (v/v) was electrophoresed by SDS-PAGE using a 10% (w/v) polyacrylamide resolving gel, electro-transferred to a PVDF membrane, and then blocked using 5% (w/v) non-fat milk. The membranes were incubated with primary antibodies (1:1000 dilution) at 4 °C overnight, followed by incubation with their respective secondary antibody for 1 h at room temperature. The antigen-antibody complexes were examined using the WestGlow^TM Chemiluminescent Substrate (Biomax Co., Ltd, Seoul, South Korea) under iBright™ CL1000 Imaging System (Thermo Fisher Scientific Inc., MA, USA). The densitometric analysis of protein signals were quantified using the Image J software (Version 1.52, National Institutes of Health, MD, USA).

Structure (SMILES): CC[C@@H](C)[C@@H](NC(=O)[C@@H](C)NC(=O)[C@@H](CC(C)C)NC(=O)[C@@H](Cc1c[nH]c2ccccc12)NC(=O)[C@@H](CC(C)C)NC(=O)[C@@H](CCCNC(=N)N)NC(=O)[C@H](N)CCCNC(=N)N)C(=O)N[C@H](Cc1c[nH]c2ccccc12)C(=O)N[C@H](CCCNC(=N)N)C(=O)N[C@H](CCCNC(=N)N)C(N)=O [Pro10-1D] (H-[dR][dR][dL][dW][dL][dA][dI][dW][dR][dR]-NH2; N-terminus assumed)
- calcein leakage (Calcein leakage assay): more than 80%
- protease resistance (retention of bactericidal activity) (chymotrypsin): substantial protease resistance
- protease resistance (retention of bactericidal activity) (chymotrypsin; listed as enantiomeric Pro10-1): retained its bactericidal activity
- protease resistance (retention of bactericidal activity) (trypsin): substantial protease resistance
- protease resistance (retention of bactericidal activity) (trypsin; listed as enantiomeric Pro10-1): retained its bactericidal activity
- inhibition of LPS-induced TNF-α level [1]: effective inhibition
- inhibition of LPS-induced IL-6 level [2]: effective inhibition
- LPS-induced TLR4 expression (TLR4): effectively suppressed
